Results taken from patent publication US10508109B2 (priority 2015, dated 2019).
Structures can show the parent of a compound that is named as a salt. Where two headings read alike, the source gives them in different places.

How the values were obtained:
SUV39H2 = SUV39H2 (Homo sapiens (Human), UniProt Q9H5I1); details: read-out: IC50 (μM) Suv 39H2 assay
A549 = experiment: Cell-based assay, anti-proliferative activity (Cell Counting Kit-8, 72 hours); details: read-out: IC50 (μM) A549
Method in brief: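 Seed cells in 96-well format; add inhibitors; measure growth by CCK-8 at end of exposure; derive IC50.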

HCT-116 = experiment: as above; details: read-out: IC50 (μM) HCT-116
Method in brief: (§1)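 Seed cells in 96-well plates; add serially diluted inhibitor (1.5625 to 100 micro-M plus vehicle); incubate 72 hours; quantify viable growth by CCK-8 and calculate IC50.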

PC14 = experiment: as above; details: read-out: IC50 (μM) PC14
Method in brief: as §1

HFL1 = experiment: as above; details: read-out: IC50 (μM) HFL1
Method in brief: as §1

CCD-18Co = experiment: as above; details: read-out: IC50 (μM) CCD-18Co
Method in brief: as §1

[1] = Homo sapiens, A549 cells, 72 hours, Cell Counting Kit-8
[2] = Homo sapiens, HCT-116 cells, 72 hours, Cell Counting Kit-8
[3] = Homo sapiens, PC-14, PC14 cells, 72 hours, Cell Counting Kit-8
[4] = Homo sapiens, HFL1 cells, 72 hours, Cell Counting Kit-8
[5] = Homo sapiens, CCD-18Co cells, 72 hours, Cell Counting Kit-8
[6] = Homo sapiens, A549 cells, Cell Counting Kit-8, 72 hours
[7] = Homo sapiens, HCT-116 cells, Cell Counting Kit-8, 72 hours
[8] = Homo sapiens, PC-14, PC14 cells, Cell Counting Kit-8, 72 hours
[9] = Homo sapiens, HFL1 cells, Cell Counting Kit-8, 72 hours
[10] = Homo sapiens, CCD-18Co cells, Cell Counting Kit-8, 72 hours

Chain of SUV39H2 (Q9H5I1 whole entry): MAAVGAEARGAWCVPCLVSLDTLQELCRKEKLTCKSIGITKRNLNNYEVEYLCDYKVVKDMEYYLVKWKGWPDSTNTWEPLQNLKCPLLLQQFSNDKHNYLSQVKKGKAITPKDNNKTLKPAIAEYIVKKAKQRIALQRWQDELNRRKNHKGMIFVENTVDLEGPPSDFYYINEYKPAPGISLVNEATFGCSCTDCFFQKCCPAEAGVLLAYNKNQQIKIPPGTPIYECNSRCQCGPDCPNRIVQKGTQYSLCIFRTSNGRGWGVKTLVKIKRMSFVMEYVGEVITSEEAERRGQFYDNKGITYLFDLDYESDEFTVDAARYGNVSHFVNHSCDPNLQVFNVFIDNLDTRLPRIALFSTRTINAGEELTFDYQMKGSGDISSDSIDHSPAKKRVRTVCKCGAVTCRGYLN

| Compound | IC50 (SUV39H2; enzyme assay) [µM] | IC50 (A549; [6]) [µM] | IC50 (HCT-116; [7]) [µM] | IC50 (HFL1; [9]) [µM] | IC50 (CCD-18Co; [10]) [µM] | also measured |
| --- | --- | --- | --- | --- | --- | --- |
| 1-(4-(2-(5-chloro-2-(3-(dimethylamino)propoxy)-4-methoxyphenyl)-imidazo[1,2-a]pyridin-7-yl)piperazin-1-yl)-2,2-dimethylpropan-1-one [Example 154] | 0.0135 | – | – | – | – | IC50 (A549; A549 cells, Cell Counting Kit-8, 72 hours): 6.9 µM; IC50 (HCT-116; HCT-116 cells, Cell Counting Kit-8, 72 hours): 7.9 µM; IC50 (PC14; PC14 cells, Cell Counting Kit-8, 72 hours): 8 µM; IC50 (HFL1; HFL1 cells, Cell Counting Kit-8, 72 hours): 4.3 µM; IC50 (CCD-18Co; CCD-18Co cells, Cell Counting Kit-8, 72 hours): 8.7 µM |
| 4-(2-(5-chloro-2,4-dimethoxyphenyl)imidazo[1,2-a]pyridin-7-yl)-N-(pyrrolidin-2-ylmethyl)benzamide [Example 249] | 0.035 | – | – | – | – | IC50 (A549; A549 cells, 72 hours, Cell Counting Kit-8): 5.4 µM; IC50 (HCT-116; HCT-116 cells, 72 hours, Cell Counting Kit-8): 3.7 µM; IC50 (PC14; PC14 cells, 72 hours, Cell Counting Kit-8): 4.8 µM; IC50 (HFL1; HFL1 cells, 72 hours, Cell Counting Kit-8): 5.4 µM; IC50 (CCD-18Co; CCD-18Co cells, 72 hours, Cell Counting Kit-8): 5.2 µM |
| COc1cc(OC)c(-c2cn3ccc(NC(=O)C(N)CCCCN)cc3n2)cc1Cl (stereo in doubt) [Example 247, (S)-2,6-diamino-N-(2-(5-chloro-2,4-dimethoxyphenyl)imidazo[1,2-a]-pyridin-7-yl)hexanamide] | – | – | – | – | – | IC50 (A549; [1]): 10 µM; IC50 (HCT-116; [2]): 10 µM; IC50 (PC14; [3]): 5.7 µM; IC50 (HFL1; [4]): 10 µM; IC50 (CCD-18Co; [5]): 10 µM |
| COc1cc(OC)c(-c2cn3ccc(N4CCCC4)nc3n2)cc1Br [Example 3, 2-(5-bromo-2,4-dimethoxyphenyl)-7-(pyrrolidin-1-yl)imidazo[1,2-a]pyrimidine] | 0.00858 | 11 | 8.1 | 7.4 | 6.8 | IC50 (PC14; [8]): 7.1 µM |
| COc1cc(OC)c(-c2cn3ccc(N4CCCC4)cc3n2)cc1Cl [Example 4, 2-(5-chloro-2,4-dimethoxyphenyl)-7-(pyrrolidin-1-yl)imidazo[1,2-a]pyridine hydrobromide] | 0.0031 | 2 | 1.5 | 1.4 | 1.1 | IC50 (PC14; [8]): 1.4 µM |
| CNc1ccn2cc(-c3cc(Cl)c(OC)cc3OC)nc2c1 [Example 6, 2-(5-chloro-2,4-dimethoxyphenyl)-N-methylimidazo[1,2-a]pyridin-7-amine hydrobromide] | 0.00943 | – | – | – | – | IC50 (A549; Homo sapiens, A549, 72 h): 2.2 µM; IC50 (HCT-116; Homo sapiens, HCT-116, 72 h): 1.7 µM; IC50 (PC14; Homo sapiens, PC-14, 72 h): 1.4 µM; IC50 (HFL1; Homo sapiens, HFL1, 72 h): 1 µM; IC50 (CCD-18Co; Homo sapiens, CCD-18Co, 72 h): 2.7 µM |
| COc1cc(OC)c(-c2cn3ccc(N4CCC(O)C4)cc3n2)cc1Br (stereo not shown) [Example 7, 1-(2-(5-bromo-2,4-dimethoxyphenyl)imidazo[1,2-a]pyridin-7-yl)pyrrolidin-3-ol] | 0.00544 | – | – | – | – | IC50 (A549; Homo sapiens, A549, 72 h): 6.9 µM; IC50 (HCT-116; Homo sapiens, HCT-116, 72 h): 7 µM; IC50 (PC14; Homo sapiens, PC-14, 72 h): 6.1 µM; IC50 (HFL1; Homo sapiens, HFL1, 72 h): 6.8 µM; IC50 (CCD-18Co; Homo sapiens, CCD-18Co, 72 h): 7.6 µM |
| COc1cc(OC)c(-c2cn3ccc(N4CCCC4)nc3n2)cc1Cl [Example 9, 2-(5-chloro-2,4-dimethoxyphenyl)-7-(pyrrolidin-1-yl)imidazo-[1,2-a]pyrimidine hydrobromide] | 0.00608 | 8 | 6.8 | 7.1 | 8 | IC50 (PC14; [8]): 6.3 µM |
| COc1cc(OC)c(-c2cn3ccc(C4CCNCC4)cc3n2)cc1Cl [Example 112, 2-(5-chloro-2,4-dimethoxyphenyl)-7-(piperidin-4-yl)imidazo[1,2-a]pyridine] | 0.0623 | 6.3 | 7.5 | 6.7 | 8.8 | – |
| COc1cc(OC)c(-c2cn3ccc(C4=CCN(CCF)CC4)cc3n2)cc1Cl [Example 113, 2-(5-chloro-2,4-dimethoxyphenyl)-7-(1-(2-fluoroethyl)-1,2,3,6-tetrahydropyridin-4-yl)imidazo[1,2-a]pyridine] | 0.0571 | 6.7 | 6.7 | 5.2 | 7.6 | – |
| COc1cc(OC)c(-c2cn3cc(CCCCN)c(N4CCOCC4)cc3n2)cc1Cl [Example 114, 4-(2-(5-chloro-2,4-dimethoxyphenyl)-7-morpholinoimidazo[1,2-a]pyridin-6-yl)butan-1-amine] | 0.0502 | 8.7 | 7.9 | 6.2 | 8.9 | – |
| COc1cc(OC)c(-c2cn3cc(N4CCNCC4)ccc3n2)cc1Cl [Example 115, 2-(5-chloro-2,4-dimethoxyphenyl)-6-(piperazin-1-yl)imidazo[1,2-a]-pyridine hydrochloride] | – | – | – | – | – | IC50 (SUV39H2): 0.0179 µM; IC50 (A549; Homo sapiens, A549, 72 h): 9.4 µM; IC50 (HCT-116; Homo sapiens, HCT-116, 72 h): 7.7 µM; IC50 (HFL1; Homo sapiens, HFL1, 72 h): 8.4 µM; IC50 (CCD-18Co; Homo sapiens, CCD-18Co, 72 h): 13 µM |
| COCCCN1CC=C(c2ccn3cc(-c4cc(Cl)c(OC)cc4OC)nc3c2)CC1 [Example 116, 2-(5-Chloro-2,4-dimethoxyphenyl)-7-(1-(3-methoxypropyl)-1,2,3,6-tetrahydropyridin-4-yl)imidazo[1,2-a]pyridine] | 0.0738 | 6.1 | 7 | 6.6 | 11 | – |
| COc1cc(OC)c(-c2cn3ccc(C4=CCC5(CC4)OCCO5)cc3n2)cc1Cl [Example 117, 2-(5-chloro-2,4-dimethoxyphenyl)-7-(1,4-dioxaspiro[4.5]dec-7-en-8-yl)-imidazo[1,2-a]pyridine] | 0.0633 | 3.5 | 3 | 5.2 | 7.7 | – |
| COc1cc(OC)c(-c2cn3ccc(C4=CCOCC4)cc3n2)cc1Cl [Example 118, 2-(5-chloro-2,4-dimethoxyphenyl)-7-(3,6-dihydro-2H-pyran-4-yl)-imidazo[1,2-a]pyridine] | 0.0661 | 6.9 | 9.1 | 6.9 | 11 | – |
| COc1cc(OC)c(-c2cn3ccc(C4CCC(=O)CC4)cc3n2)cc1Cl [Example 119, 4-(2-(5-chloro-2,4-dimethoxyphenyl)imidazo[1,2-a]pyridin-7-yl)-cyclohexanone] | 0.0429 | – | – | – | – | IC50 (A549; Homo sapiens, A549, 72 h): 5.8 µM; IC50 (HCT-116; Homo sapiens, HCT-116, 72 h): 9.7 µM; IC50 (HFL1; Homo sapiens, HFL1, 72 h): 3.5 µM; IC50 (CCD-18Co; Homo sapiens, CCD-18Co, 72 h): 3.6 µM |
| COc1cc(OC)c(-c2cn3ccc(C4=CCN(C(C)=O)CC4)cc3n2)cc1Cl [Example 120, 1-(4-(2-(5-chloro-2,4-dimethoxyphenyl)imidazo[1,2-a]pyridin-7-yl)-5,6-dihydropyridin-1(2H)-yl)ethanone] | 0.0364 | 6.5 | 6.6 | 7.6 | 6.8 | – |
| COc1cc(OC)c(-c2cn3cc(N4CCC(N)CC4)ccc3n2)cc1Cl [Example 121, 1-(2-(5-chloro-2,4-dimethoxyphenyl)imidazo[1,2-a]pyridin-6-yl)piperidin-4-amine] | 0.0514 | 8.1 | 18 | 6.8 | 6.8 | – |
| CNCC(=O)Nc1ccc(-c2ccn3cc(-c4cc(Cl)c(OC)cc4OC)nc3c2)cc1 [Example 273, N-(4-(2-(5-chloro-2,4-dimethoxyphenyl)imidazo[1,2-a]pyridin-7-yl)phenyl)-2-(methylamino)acetamide hydrochloride] | – | – | – | – | – | IC50 (A549; Homo sapiens, A549, 72 h): 1.5 µM; IC50 (HCT-116; Homo sapiens, HCT-116, 72 h): 0.86 µM; IC50 (PC14; Homo sapiens, PC-14, 72 h): 1.1 µM; IC50 (HFL1; Homo sapiens, HFL1, 72 h): 1.2 µM; IC50 (CCD-18Co; Homo sapiens, CCD-18Co, 72 h): 1.1 µM |
| COc1cc(OC)c(-c2cn3ccc(-c4ccc(C(=O)[C@H](C)N)cc4)cc3n2)cc1Cl [Example 274, (S)-2-amino-1-(4-(2-(5-chloro-2,4-dimethoxyphenyl)imidazo[1,2-a]-pyridin-7-yl)phenyl)propan-1-one hydrochloride] | – | – | – | – | – | IC50 (A549; Homo sapiens, A549, 72 h): 1.2 µM; IC50 (HCT-116; [2]): 1.6 µM; IC50 (PC14; [3]): 0.74 µM; IC50 (HFL1; [4]): 1.4 µM; IC50 (CCD-18Co; [5]): 1.5 µM |
| COc1cc(OC)c(-c2cn3ccc(N4CC[C@H](NCc5ccncc5)C4)cc3n2)cc1Cl [Example 298, (S)-1-(2-(5-chloro-2,4-dimethoxyphenyl)imidazo[1,2-a]pyridin-7-yl)-N-(pyridin-4-ylmethyl)pyrrolidin-3-amine trihydrochloride] | – | – | – | – | – | IC50 (A549; [1]): 0.67 µM; IC50 (HCT-116; [2]): 0.5 µM; IC50 (PC14; [3]): 0.79 µM; IC50 (HFL1; [4]): 0.84 µM; IC50 (CCD-18Co; [5]): 1.4 µM |
